Results reported in ChEMBL document CHEMBL1201862, “PubChem BioAssay data set” (2004).
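Five compound concentrations were applied to cells in 96-well plates for 48 hours; endpoints were derived by simple linear interpolation of the resulting dose-response curve. GI50 marks 50% less growth.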 Calls of active or inactive are those of the source. Rule as the data show it: active = GI50 up to about 1.1 µM and inactive = higher.

Assays:
Experiment in all cases: NCI-60 cell line screen, 48 h
A498 = system: A498
A549 = system: A549
CCRF-CEM = system: CCRF-CEM
COLO 205 = system: COLO 205
DLD-1 = system: DLD-1
DMS-114 = system: DMS-114
DMS-273 = system: DMS-273
EKVX = system: EKVX
HCC 2998 = system: HCC 2998
HCT-116 = system: HCT-116
HCT-15 = system: HCT-15
HL-60 = system: HL-60
HOP-18 = system: HOP-18
HOP-62 = system: HOP-62
HOP-92 = system: HOP-92
HT-29 = system: HT-29
IGROV-1 = system: IGROV-1
K562 = system: K562
KM-20L2 = system: KM-20L2
KM12 = system: KM12
LOX IMVI = system: LOX IMVI
M19-MEL = system: M19-MEL
MCF7 = system: MCF7
MOLT-4 = system: MOLT-4
Malme-3M = system: Malme-3M
NCI-H226 = system: NCI-H226
NCI-H23 = system: NCI-H23
NCI-H460 = system: NCI-H460
NCI-H522 = system: NCI-H522
NCI/ADR-RES = system: NCI/ADR-RES
OVCAR-3 = system: OVCAR-3
OVCAR-4 = system: OVCAR-4
OVCAR-5 = system: OVCAR-5
OVCAR-8 = system: OVCAR-8
RPMI-8226 = system: RPMI-8226
RXF 393 = system: RXF 393
SF-268 = system: SF-268
SF-295 = system: SF-295
SF-539 = system: SF-539
SK-MEL-28 = system: SK-MEL-28
SK-MEL-2 = system: SK-MEL-2
SK-MEL-5 = system: SK-MEL-5
SK-OV-3 = system: SK-OV-3
SN12C = system: SN12C
SNB-19 = system: SNB-19
SNB-75 = system: SNB-75
SNB-78 = system: SNB-78
SW-620 = system: SW-620
U-251 = system: U-251
UACC-257 = system: UACC-257
UACC-62 = system: UACC-62
UO-31 = system: UO-31
XF498 = system: XF498
786-0 = system: 786-0
ACHN = system: ACHN
CAKI-1 = system: CAKI-1
LXFL 529 = system: LXFL 529
M14 = system: M14
SR = system: SR
TK-10 = system: TK-10

O=[N+]([O-])c1ccc(Nc2cccc3c4cc[nH]c(-c5ccccc5)c-4nc23)c([N+](=O)[O-])c1
GI50 (A498): > 100 µM (inactive)
GI50 (A549): > 100 µM (inactive)
GI50 (CCRF-CEM): 41.4 µM (inactive)
GI50 (COLO 205): > 100 µM (inactive)
GI50 (DLD-1): > 100 µM (inactive)
GI50 (DMS-114): > 100 µM (inactive)
GI50 (DMS-273): > 100 µM (inactive)
GI50 (EKVX): > 100 µM (inactive)
GI50 (HCC 2998): > 100 µM (inactive)
GI50 (HCT-116): > 100 µM (inactive)
GI50 (HCT-15): > 100 µM
GI50 (HL-60): > 100 µM (inactive)
GI50 (HOP-18): > 100 µM (inactive)
GI50 (HOP-62): > 100 µM (inactive)
GI50 (HOP-92): > 100 µM (inactive)
GI50 (HT-29): > 100 µM (inactive)
GI50 (IGROV-1): > 100 µM (inactive)
GI50 (K562): 36.1 µM (inactive)
GI50 (KM-20L2): > 100 µM (inactive)
GI50 (KM12): > 100 µM (inactive)
GI50 (LOX IMVI): > 100 µM (inactive)
GI50 (M19-MEL): > 100 µM (inactive)
GI50 (MCF7): 54.2 µM (inactive)
GI50 (MOLT-4): 5.82 µM (inactive)
GI50 (Malme-3M): > 100 µM (inactive)
GI50 (NCI-H226): > 100 µM (inactive)
GI50 (NCI-H23): > 100 µM (inactive)
GI50 (NCI-H460): > 100 µM (inactive)
GI50 (NCI-H522): > 100 µM (inactive)
GI50 (NCI/ADR-RES): > 100 µM (inactive)
GI50 (OVCAR-3): > 100 µM (inactive)
GI50 (OVCAR-4): > 100 µM (inactive)
GI50 (OVCAR-5): > 100 µM (inactive)
GI50 (OVCAR-8): > 100 µM (inactive)
GI50 (RPMI-8226): > 100 µM (inactive)
GI50 (RXF 393): > 100 µM (inactive)
GI50 (SF-268): > 100 µM (inactive)
GI50 (SF-295): > 100 µM (inactive)
GI50 (SF-539): > 100 µM (inactive)
GI50 (SK-MEL-28): > 100 µM (inactive)
GI50 (SK-MEL-2): > 100 µM (inactive)
GI50 (SK-MEL-5): > 100 µM (inactive)
GI50 (SK-OV-3): > 100 µM (inactive)
GI50 (SN12C): > 100 µM (inactive)
GI50 (SNB-19): > 100 µM (inactive)
GI50 (SNB-75): > 100 µM (inactive)
GI50 (SNB-78): > 100 µM (inactive)
GI50 (SW-620): > 100 µM (inactive)
GI50 (U-251): > 100 µM (inactive)
GI50 (UACC-257): > 100 µM (inactive)
GI50 (UACC-62): 93.5 µM (inactive)
GI50 (UO-31): > 100 µM (inactive)
GI50 (XF498): > 100 µM (inactive)

CCOC(=O)/C(C#N)=C(N)/C(=N\Nc1cccc(C(F)(F)F)c1)C(=O)OCC
GI50 (786-0): > 100 µM (inactive)
GI50 (A498): > 100 µM (inactive)
GI50 (A549): > 100 µM (inactive)
GI50 (ACHN): > 100 µM (inactive)
GI50 (CAKI-1): > 100 µM (inactive)
GI50 (CCRF-CEM): > 100 µM (inactive)
GI50 (COLO 205): > 100 µM (inactive)
GI50 (DLD-1): > 100 µM (inactive)
GI50 (DMS-114): > 100 µM (inactive)
GI50 (DMS-273): > 100 µM (inactive)
GI50 (EKVX): > 100 µM (inactive)
GI50 (HCC 2998): > 100 µM (inactive)
GI50 (HCT-116): > 100 µM (inactive)
GI50 (HCT-15): > 100 µM
GI50 (HL-60): 75.9 µM (inactive)
GI50 (HOP-18): > 100 µM (inactive)
GI50 (HOP-62): > 100 µM (inactive)
GI50 (HOP-92): > 100 µM (inactive)
GI50 (HT-29): > 100 µM (inactive)
GI50 (IGROV-1): > 100 µM (inactive)
GI50 (KM-20L2): > 100 µM (inactive)
GI50 (LOX IMVI): > 100 µM (inactive)
GI50 (LXFL 529): > 100 µM (inactive)
GI50 (M14): > 100 µM (inactive)
GI50 (M19-MEL): > 100 µM (inactive)
GI50 (MOLT-4): > 100 µM (inactive)
GI50 (Malme-3M): > 100 µM (inactive)
GI50 (NCI-H226): > 100 µM (inactive)
GI50 (NCI-H23): > 100 µM (inactive)
GI50 (NCI-H522): > 100 µM (inactive)
GI50 (OVCAR-3): > 100 µM (inactive)
GI50 (OVCAR-4): > 100 µM (inactive)
GI50 (OVCAR-5): > 100 µM (inactive)
GI50 (OVCAR-8): > 100 µM (inactive)
GI50 (RPMI-8226): > 100 µM (inactive)
GI50 (SF-268): > 100 µM (inactive)
GI50 (SF-295): > 100 µM (inactive)
GI50 (SF-539): > 100 µM (inactive)
GI50 (SK-MEL-28): > 100 µM (inactive)
GI50 (SK-MEL-2): > 100 µM (inactive)
GI50 (SK-MEL-5): > 100 µM (inactive)
GI50 (SK-OV-3): > 100 µM (inactive)
GI50 (SN12C): > 100 µM (inactive)
GI50 (SNB-19): > 100 µM (inactive)
GI50 (SNB-75): > 100 µM (inactive)
GI50 (SNB-78): > 100 µM (inactive)
GI50 (SR): > 100 µM (inactive)
GI50 (SW-620): > 100 µM (inactive)
GI50 (TK-10): > 100 µM (inactive)
GI50 (U-251): > 100 µM (inactive)
GI50 (UACC-257): > 100 µM (inactive)
GI50 (UACC-62): > 100 µM (inactive)
GI50 (UO-31): > 100 µM (inactive)

Cc1ccc2c(c1)C1C(CO2)C(c2ccccc2)=NN1c1ccccc1 (centres undefined)
GI50 (786-0): > 100 µM (inactive)
GI50 (A498): > 100 µM (inactive)
GI50 (A549): > 100 µM (inactive)
GI50 (ACHN): > 100 µM (inactive)
GI50 (CCRF-CEM): > 100 µM (inactive)
GI50 (COLO 205): > 100 µM (inactive)
GI50 (DLD-1): > 100 µM (inactive)
GI50 (DMS-114): > 100 µM (inactive)
GI50 (DMS-273): > 100 µM (inactive)
GI50 (EKVX): > 100 µM (inactive)
GI50 (HCC 2998): 95.5 µM (inactive)
GI50 (HCT-116): > 100 µM (inactive)
GI50 (HL-60): 72.3 µM (inactive)
GI50 (HOP-18): > 100 µM (inactive)
GI50 (HOP-62): > 100 µM (inactive)
GI50 (HOP-92): 80.5 µM (inactive)
GI50 (HT-29): 69.5 µM (inactive)
GI50 (IGROV-1): > 100 µM (inactive)
GI50 (K562): > 100 µM (inactive)
GI50 (KM-20L2): > 100 µM (inactive)
GI50 (KM12): > 100 µM (inactive)
GI50 (LOX IMVI): > 100 µM (inactive)
GI50 (LXFL 529): > 100 µM (inactive)
GI50 (M19-MEL): > 100 µM (inactive)
GI50 (MOLT-4): 96.2 µM (inactive)
GI50 (Malme-3M): > 100 µM (inactive)
GI50 (NCI-H23): > 100 µM (inactive)
GI50 (NCI-H460): > 100 µM (inactive)
GI50 (NCI-H522): > 100 µM (inactive)
GI50 (OVCAR-3): > 100 µM (inactive)
GI50 (OVCAR-5): > 100 µM (inactive)
GI50 (OVCAR-8): > 100 µM (inactive)
GI50 (RPMI-8226): 45.7 µM (inactive)
GI50 (RXF 393): > 100 µM (inactive)
GI50 (SF-268): > 100 µM (inactive)
GI50 (SF-295): > 100 µM (inactive)
GI50 (SF-539): > 100 µM (inactive)
GI50 (SK-MEL-28): > 100 µM (inactive)
GI50 (SK-MEL-2): > 100 µM (inactive)
GI50 (SK-OV-3): > 100 µM (inactive)
GI50 (SNB-19): > 100 µM (inactive)
GI50 (SNB-75): > 100 µM (inactive)
GI50 (SNB-78): > 100 µM (inactive)
GI50 (SW-620): > 100 µM (inactive)
GI50 (TK-10): > 100 µM (inactive)
GI50 (U-251): > 100 µM (inactive)
GI50 (UACC-257): > 100 µM (inactive)
GI50 (UO-31): > 100 µM (inactive)
